US20050164259A1, “Sequences” (priority 2001, published 2005)

Columns and labels:
[1] = target: T1, pyranosone dehydratase (PD) (Phanerodontia chrysosporium, UniProt P84193); assay: Conversion of AF or glucosone by pyranosone dehydratase, monitored at 226 nm; format: biochemical, Phanerochaete chrysosporium; settings: for OD 226 nm using substance as substrate: 22° C., 5.5 hours
T1 construct: The cell-free extract of Phanerochaete crysosporium was brought up to 55% ammonium sulphate saturation; endogenous in cells; host or cells: Phanerochaete chrysosporium ATCC 32629 and ATCC 24725; Native enzyme purified from cell-free extract by ammonium sulphate fractionation, then the procedure of Gabriel et al. 1993
T1 sequence (P84193 8-900 limits assumed): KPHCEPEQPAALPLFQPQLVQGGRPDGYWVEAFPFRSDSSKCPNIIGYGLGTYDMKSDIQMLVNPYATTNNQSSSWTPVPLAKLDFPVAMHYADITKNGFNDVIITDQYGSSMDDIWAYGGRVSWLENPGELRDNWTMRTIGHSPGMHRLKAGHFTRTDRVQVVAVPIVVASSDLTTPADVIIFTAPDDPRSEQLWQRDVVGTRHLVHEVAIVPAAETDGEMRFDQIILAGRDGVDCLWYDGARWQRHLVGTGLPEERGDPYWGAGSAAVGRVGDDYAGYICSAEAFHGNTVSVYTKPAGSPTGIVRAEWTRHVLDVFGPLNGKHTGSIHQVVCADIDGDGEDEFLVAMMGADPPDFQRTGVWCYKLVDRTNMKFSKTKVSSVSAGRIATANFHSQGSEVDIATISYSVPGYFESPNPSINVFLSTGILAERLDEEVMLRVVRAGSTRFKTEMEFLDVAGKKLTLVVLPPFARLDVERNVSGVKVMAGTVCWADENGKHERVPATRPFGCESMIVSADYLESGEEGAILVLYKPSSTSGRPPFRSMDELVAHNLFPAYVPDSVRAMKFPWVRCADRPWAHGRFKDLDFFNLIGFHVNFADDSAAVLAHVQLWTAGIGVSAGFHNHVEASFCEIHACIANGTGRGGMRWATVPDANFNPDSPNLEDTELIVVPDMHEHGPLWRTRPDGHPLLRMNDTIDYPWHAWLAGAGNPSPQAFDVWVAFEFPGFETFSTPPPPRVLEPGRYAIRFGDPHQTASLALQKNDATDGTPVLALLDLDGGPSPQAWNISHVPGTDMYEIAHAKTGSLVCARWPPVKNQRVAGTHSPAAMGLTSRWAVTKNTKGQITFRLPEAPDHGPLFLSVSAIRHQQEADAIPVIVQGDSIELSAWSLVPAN

[2] = tested on: Aphanomyces; assay: Field emergence trial FEHCPO34 Aphanomyces, pelleted sugar beet seeds; format: in vivo; settings: pellets containing the substance; in words
Excerpt: Based on these findings, the efficiency of microthecin was further investigated in a field emergence trial. The trial was sown relatively late giving it a higher chance for presence of the pathogen Aphanomyces in the trial field.
(§1) Seeds were pelleted with standard P1 pelleting mass with (1,2) or without (7,8)Thiram.
(§2) Inner coating: 0.3 gai/U microthecin as a 0.5% solution in water or • 14.7 gai/U Hymexazol. • 60 gai/U Imidacloprid.
(§3) Standard metallic green seed cover film.
Trial place Bukkehave, D K. (4 reps, 200 seeds/plot)

[3] = tested on: sugar beet seeds; assay: Laboratory germination of pelleted sugar beet seeds; format: in vivo; settings: in words
Excerpt: as §1, §2, §3

[4] = tested on: Aphanomyces cochlioides; assay: Example 4 screening for growth inhibition on agar plates; format: cell-based; settings: very low concentrations; wells on PDA-agar plates, 3-5 days
Method: The effect of microthecin on the plant pathogenic fungi Pythium ultimum, Rhizoctonia solani and Aphanomyces cochlioides in vitro was investigated by screening for growth inhibition of the pathogens on agar-plates (FIGS. 6, 7, 8).
(§4) In each case, microthecin was dissolved in water and placed in wells in the periphery. An agar block containing the pathogen was placed in the centre. The pathogens were allowed to grow out on the PDA-agar plates for 3-5 days.

[5] = tested on: Pseudomonads (P. fluorescens DS96.578, P. mendocina DS98.124); assay: Example 4 similar tests with other microorganisms; format: cell-based
Method: as §4

[6] = tested on: Bacillus (B. Pumilus DS96.734, B. megaterium DS98.124); assay: Example 4 similar tests with other microorganisms; format: cell-based
Method: as §4

[7] = tested on: Aphanomyces cochlioides; assay: Agar plate inhibition zone test (PDA), microthecin solutions; format: cell-based; settings: judged after 3-4 days of growth
Method: (§5) Basic microthecin solution: 24 mg/ml Batch no. Mic20011016
(§6) All solutions were filtered through a 0.22 μm filter for sterilisation.
(§7) A circular plug (diameter 10 mm) of fresh mycelium was placed at the centre on a petri-dish (diameter 9 cm) containing PDA medium. (PDA=Potato dextrose agar Difco no. 213400). Wells with a diameter of 5 mm were cut along the periphery of the agar plate. In each well were placed 50 μl of a test solution. Alternatively, 20 μl of each test solution were placed directly on the agar along the periphery of the plate. Also, 50 μl of each test solution were placed directly on top of the fungal mycelium plug.
(§8) The agar plates were placed at room temperature in daylight, but protected from direct sunlight.
(§9) The reaction (inhibition zones) of the fungi to the test substance was judged as follows: […]

[8] = tested on: Rhizoctonia solani; assay: as above; format: cell-based; settings: judged after 2-3 days of growth
Method: as §5, §6, §7, §8, §9

[9] = tested on: Cercospora beticola; assay: as above; format: cell-based; settings: judged after 3-4 weeks of growth
Method: as §5, §6, §7, §8, §9

[10] = tested on: Pythium ultimum; assay: as above; format: cell-based; settings: judged after 1-2 days of growth
Method: as §5, §6, §7, §8, §9

[11] = final substrate concentration 13.7 μg/ml reaction mixture
[12] = final substrate concentration 27.4 μg/ml reaction mixture
[13] = final substrate concentration 41.1 μg/ml reaction mixture
[14] = final substrate concentration 68.4 μg/ml reaction mixture
[15] = final substrate concentration 95.8 μg/ml reaction mixture
[16] = final substrate concentration 137 μg/ml reaction mixture
[17] = final substrate concentration 205 μg/ml reaction mixture

SMILES	Vmax with AF relative to glucosone ([1]; AF versus natural substrate glucosone)	OD 226 nm using substance as substrate [1, 11]	OD 226 nm using substance as substrate [1, 12]	OD 226 nm using substance as substrate [1, 13]	OD 226 nm using substance as substrate [1, 14]	OD 226 nm using substance as substrate [1, 15]	OD 226 nm using substance as substrate [1, 16]	OD 226 nm using substance as substrate [1, 17]	speed of germination in field emergence trials [2]	4d>15mm germination [3]	final germination in field [2]	growth of Aphanomyces [4]	speed of laboratory germination (4d) ([3]; inclusion in pellets)	effect on Pseudomonads [5]	effect on the growth of Bacillus [6]	minimum inhibition concentration (mic) [7] [ppm]	minimum inhibition concentration (mic) [8] [ppm]	minimum inhibition concentration (mic) [9] [ppm]	minimum inhibition concentration (mic) [10] [ppm]
O=C1CO[C@H](CO)[C@@H](O)[C@@H]1O [AF, 1,5-anhydro-D-fructose]	around 4.7 times	0.308	0.534	0.76	1.246	1.764	2.43	2.943	–	–	–	–	–	–	–	–	–	–	–
O=CC(=O)[C@@H](O)[C@H](O)[C@H](O)CO [Glucosone, D-arabino-hexos-2-ulose]	–	0.069	0.104	0.141	0.238	0.323	0.484	0.634	–	–	–	–	–	–	–	–	–	–	–
Cc1cc(O)no1 [Hymexazol]	–	–	–	–	–	–	–	–	germinate relatively slow	low 4d>15mm germination	–	–	–	–	–	–	–	–	–
O=C1C=CCOC1(O)CO (stereo not drawn) [microthecin]	–	–	–	–	–	–	–	–	comparable with pellets only containing Thiram	–	high final germination	able to reduce the growth	decreases the speed of laboratory germination	slightly affected	no effect	1200	240	2400	480
